Data: US20050181042A1, “Composition for oral or rectal administration” (priority 2002, published 2005)

Experiment: Plasma gentamycin after oral administration to NZW rabbits
Type: in vivo
Details: for Plasma concentration of gentamycin: n = 3
Description: NZW rabbits were used in all experiments and all tablet/capsules were administered orally. The animals were given four, five or six tablets/capsules followed by water until they had swallowed the tablets/capsules. The animals were deprived of food for about 18 hours before dosing. […] The blood samples were centrifuged for 10 min at approximately 2000×g to obtain plasma for determination of gentamycin by EMIT 2000 TDM assay on a Hitachi 704 Analyzer (Table 10).
The area under the curve (AUC) was calculated by the linear trapezoidal rule to the last blood concentration. Two different doses (5 or 10 mg/kg bodyweight) were used during the experiments. For comparison of the results of the different formulations the AUC was divided by the respective dose of gentamycin. The obtained plasma concentration for pure gentamycin was set to 1. The obtained plasma concentrations for gentamycin in the three different lipid formulations were then expressed as multiple factors of increasing bioabsorption.

## Gentamycin sulphate [Gentamycin 1]
dose-adjusted AUC relative to Gentamycin 1
  Correlation factor (multiple of bioabsorption, pure gentamycin = 1): 1
oral, dose 10 mg/kg, 0 hrs
  Plasma concentration of gentamycin: 0 microgram/mL
oral, dose 10 mg/kg, 0.5 hrs
  Plasma concentration of gentamycin: 0.01 microgram/mL
oral, dose 10 mg/kg, 1 hr
  Plasma concentration of gentamycin: 0.01 microgram/mL
oral, dose 10 mg/kg, 2 hrs
  Plasma concentration of gentamycin: 0.02 microgram/mL
oral, dose 10 mg/kg, 4 hrs
  Plasma concentration of gentamycin: 0.01 microgram/mL
oral, dose 10 mg/kg, 6 hrs
  Plasma concentration of gentamycin: 0.03 microgram/mL
oral, dose 10 mg/kg, linear trapezoidal rule to last blood concentration (6 hrs)
  AUC: 0.09
